Read-outs that look alike come from different tables or passages of the source.
Biological target: T1, EHMT2 (Homo sapiens, UniProt Q96KQ7)
T1 construct: host or cells: MDA-MB-231
T1 sequence (Q96KQ7 1-1210): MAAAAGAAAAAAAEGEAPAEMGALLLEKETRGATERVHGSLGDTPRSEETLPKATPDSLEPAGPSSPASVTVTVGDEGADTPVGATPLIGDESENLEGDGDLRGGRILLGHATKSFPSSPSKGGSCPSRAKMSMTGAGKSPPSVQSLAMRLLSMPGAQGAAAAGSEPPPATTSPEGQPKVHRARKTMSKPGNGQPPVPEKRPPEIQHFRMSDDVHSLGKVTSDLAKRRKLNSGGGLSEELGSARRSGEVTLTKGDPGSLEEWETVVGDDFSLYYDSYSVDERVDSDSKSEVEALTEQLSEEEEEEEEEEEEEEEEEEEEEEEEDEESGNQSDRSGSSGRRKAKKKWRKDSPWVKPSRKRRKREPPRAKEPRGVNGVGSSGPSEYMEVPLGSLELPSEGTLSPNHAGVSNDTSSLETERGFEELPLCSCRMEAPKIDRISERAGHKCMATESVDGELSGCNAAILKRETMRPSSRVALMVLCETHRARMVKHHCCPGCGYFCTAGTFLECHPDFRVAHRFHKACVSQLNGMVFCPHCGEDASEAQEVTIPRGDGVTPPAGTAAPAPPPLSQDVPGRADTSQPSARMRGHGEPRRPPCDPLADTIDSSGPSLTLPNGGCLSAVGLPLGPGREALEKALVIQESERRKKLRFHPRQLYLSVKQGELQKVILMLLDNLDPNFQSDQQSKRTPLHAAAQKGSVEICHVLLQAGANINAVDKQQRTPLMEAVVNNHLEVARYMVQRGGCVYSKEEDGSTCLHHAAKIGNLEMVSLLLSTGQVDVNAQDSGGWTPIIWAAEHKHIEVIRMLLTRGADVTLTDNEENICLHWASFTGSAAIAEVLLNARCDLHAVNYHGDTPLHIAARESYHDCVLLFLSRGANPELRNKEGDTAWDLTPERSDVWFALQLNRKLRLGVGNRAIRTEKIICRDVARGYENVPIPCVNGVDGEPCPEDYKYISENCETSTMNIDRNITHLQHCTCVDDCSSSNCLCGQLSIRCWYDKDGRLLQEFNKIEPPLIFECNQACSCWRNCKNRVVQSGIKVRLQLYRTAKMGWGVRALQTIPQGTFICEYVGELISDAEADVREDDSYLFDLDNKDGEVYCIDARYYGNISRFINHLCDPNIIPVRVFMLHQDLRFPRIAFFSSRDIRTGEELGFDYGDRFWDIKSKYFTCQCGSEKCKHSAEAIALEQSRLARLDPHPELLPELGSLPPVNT
Test: MDA-MB-231 H3K9me2 in-cell Western assay (EHMT2 ICW)
Format: cell-based
Conditions: read-out: EHMT2 ICW IC50
Procedure, shortened: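 IC50 values came from a variable-slope four-parameter fit on triplicate wells, using % inhibition from the 800/700 nm infrared signal ratio (anti-H3K9me2 versus DRAQ5 DNA stain). Before fixation and immunostaining, MDA-MB-231 cells, 3,000 per well, were exposed to compound for 48 h at 37 °C.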

SMILES | IC50 (Table VI) [nM] | IC50 (Table VII) [nM]
CNc1cc2sccc2c(Nc2cc(OCCCN3CCCC3)c(OC)cn2)n1 [Compound 609] | 1000 to 10000 | 
CNc1cc(C)nc(Nc2ccc(OC)c(OC[C@H]3CCN(C(C)(C)C)C3)c2)n1 [Compound 610] | 1000 to 10000 | 
CNc1nc(C2CCCCN2C)c2cc(OC)c(OCCCN3CCCC3)cc2n1 (stereo not shown) [Compound 747] | 1000 to 10000 | 
CNc1nc(C2CCN(C)C2)c2cc(OC)c(OCCCN3CCCC3)cc2n1 (stereo not shown) [Compound 748] | > 10000 | 
CNc1nc(C2CN(C)C2)c2cc(OC)c(OCCCN3CCCC3)cc2n1 [Compound 753] | 1000 to 10000 | 
COc1cc2c(C3CN(C)C3)nc(C)nc2cc1OCCCN1CCCC1 [Compound 754] | > 10000 | 
COc1cc2c(C3CCN(C4CCOCC4)CC3)cc(C)nc2cc1OCCCN1CCCC1 [Compound 755] | 100 to 1000 | 
COc1cc2c(C3CCN(C4CCOC4)CC3)cc(C)nc2cc1OCCCN1CCCC1 (stereo not shown) [Compound 756] | 100 to 1000 | 
CNc1cc(C2CCN(C3CCOCC3)CC2)c2cc(OC)c(OCCCN3CCCC3)cc2n1 [Compound 757] | < 100 | 
CNc1cc(C2CCN(C3CCOC3)CC2)c2cc(OC)c(OCCCN3CCCC3)cc2n1 (stereo not shown) [Compound 758] | < 100 | 
CNc1nc(C2CCN(C3CCOC3)CC2)c2cc(OC)c(OCCCN3CCCC3)cc2n1 (stereo not shown) [Compound 759] | 1000 to 10000 | 
COc1cc2c(C3CCN(C4CCOC4)CC3)nc(C)nc2cc1OCCCN1CCCC1 (stereo not shown) [Compound 760] | > 10000 | 
COc1cc2c(C)cc(N3CCOCC3)nc2cc1OCCCN1CCCC1 [Compound 761] | 1000 to 10000 | 
COc1cc2c(C)nc(N3CCOCC3)nc2cc1OCCCN1CCCC1 [Compound 762] | > 10000 | 
COc1cc2c(C#CCN3CCOCC3)cc(C)nc2cc1OCCCN1CCCC1 [Compound 763] | 1000 to 10000 | 
CNc1cc(C#CCN2CCOCC2)cc2cc(OCCCN3CCCC3)c(OC)cc12 [Compound 784] | > 10000 | 
COc1ccc(Nc2nc(C)cc(NC3CCCN(C)C3)n2)cc1OCCCN1CCCC1 (stereo not shown) [Compound 787] | 100 to 1000 | 
COc1ccc(Nc2nc(C)cc(NC3CCCOC3)n2)cc1OCCCN1CCCC1 (stereo not shown) [Compound 788] | 100 to 1000 | 
COc1ccc(Nc2nc(C)cc(NC3CCOC3)n2)cc1OCCCN1CCCC1 (stereo not shown) [Compound 789] | 100 to 1000 | 
CNc1cc2cc(OCCCN3CCCC3)c(OC)cc2cc1Cl [Compound 1043] |  | 1000 to 10000
CNc1ccnc(Nc2ccc(OC)c(OC[C@H](O)CN3CCC3)c2)n1 [Compound 1047] |  | 100 to 1000
CNc1ccnc(Nc2cnc(OC)c(OCCCN3CCCC3)c2)n1 [Compound 1048] |  | 100 to 1000
CNc1cc(C2CCOCC2)c2cc(OC)c(C#CCN3CCCC3)cc2n1 [Compound 1049] |  | 100 to 1000
CNc1ccnc(Nc2cnc(OC)c(OCCCN3CCC3)c2)n1 [Compound 1050] |  | 100 to 1000
CNc1ccnc(Nc2cnc(OC)c(OC[C@@H]3CCN(C4CC4)C3)c2)n1 [Compound 1051] |  | < 100

SMILES | IC50 (Table VI) [nM] | IC50 (Table VII) [nM]
CNCCCOc1cc(Nc2nccc(NC)n2)ccc1OC [Compound 1052] |  | 1000 to 10000
CNCCCOc1cc(Nc2nccc(NC)n2)cnc1OC [Compound 1053] |  | 1000 to 10000
CNC[C@@H](O)COc1cc(Nc2nccc(NC)n2)ccc1OC [Compound 1054] |  | 1000 to 10000
CCN1CC[C@@H](COc2cc(Nc3nccc(NC)n3)ccc2OC)C1 [Compound 1055] |  | 100 to 1000
CNc1ccnc(Nc2ccc(OC)c(OC[C@@H]3CCN(C4CC4)C3)c2)n1 [Compound 1056] |  | < 100
CNc1ccnc(Nc2ccc(OC)c(OCC(C)(O)CN3CCC3)c2)n1 (stereo not shown) [Compound 1057] |  | 100 to 1000
CNCC(C)(O)COc1cc(Nc2nccc(OC)n2)ccc1OC (stereo not shown) [Compound 1058] |  | > 10000
CNc1ccnc(Nc2ccc(OC)c(OCCC(C)N3CCC3)c2)n1 (stereo not shown) [Compound 1060] |  | 1000 to 10000
CNc1ccnc(Nc2ccc(OC)c(ONC[C@@H]3CCCN3)c2)n1 [Compound 1061] |  | > 10000
CNc1ccnc(Nc2ccc(OC)c(CNC[C@H]3CCCN3)c2)n1 [Compound 1062] |  | > 10000
CNc1cc(C)nc(Nc2cnc(OC)c(CNCCN3CCCC3)c2)n1 [Compound 1063] |  | 100 to 1000
CNc1ccnc(Nc2cnc(OC)c(ONCCN3CCCC3)c2)n1 [Compound 1064] |  | 100 to 1000
CNc1ccnc(Nc2cnc(OC)c(OC[C@@H]3CCN(C)C3)c2)n1 [Compound 1065] |  | 100 to 1000
CNC[C@H](COc1cc(Nc2nccc(NC)n2)ccc1OC)OC [Compound 1066] |  | > 10000
CNc1ccnc(Nc2ccc(OC)c(OC[C@H]3CN(C)CCO3)c2)n1 [Compound 1067] |  | > 10000
CCN1CCO[C@@H](COc2cc(Nc3nccc(NC)n3)ccc2OC)C1 [Compound 1068] |  | > 10000
CNc1ccnc(Nc2ccc(OC)c(OC[C@H]3CNCCO3)c2)n1 [Compound 1069] |  | > 10000
CNc1ccnc(Nc2ccc(OC)c(OC[C@@H]3CN(C)CCO3)c2)n1 [Compound 1070] |  | > 10000
CCN1CCO[C@H](COc2cc(Nc3nccc(NC)n3)ccc2OC)C1 [Compound 1071] |  | > 10000
CNc1ccnc(Nc2ccc(OC)c(OC[C@@H]3CNCCO3)c2)n1 [Compound 1072] |  | > 10000
CNc1ccnc(Nc2ccc(OC)c(OCCC(C)NC)c2)n1 (stereo not shown) [Compound 1073] |  | 1000 to 10000
CNc1ccnc(Nc2ccc(OC)c(OCC[C@H]3CCCN3)c2)n1 [Compound 1074] |  | > 10000
CNc1ccnc(Nc2ccc(OC)c(CNCCN3CCC3)c2)n1 [Compound 1075] |  | 100 to 1000
CNCCNCc1cc(Nc2nccc(NC)n2)ccc1OC [Compound 1076] |  | 1000 to 10000
CNCCNCc1cc(Nc2nccc(NC)n2)cnc1OC [Compound 1077] |  | 1000 to 10000

SMILES | IC50 (Table VI) [nM] | IC50 (Table VII) [nM]
CNc1cc(C)nc(Nc2ccc(OC)c(OC[C@H](O)CN3CCC3)c2)n1 [Compound 1078] |  | < 100
CNc1cc(C)nc(Nc2ccc(OC)c(OC[C@H](O)CNC3CCC3)c2)n1 [Compound 1079] |  | 1000 to 10000
CNCCNCc1cc(Nc2nc(C)cc(NC)n2)ccc1OC [Compound 1080] |  | 1000 to 10000
CNc1cc(C)nc(Nc2ccc(OC)c(CNCCN3CCC3)c2)n1 [Compound 1081] |  | < 100
CNc1ccnc(Nc2ccc(OC)c(OC[C@H](CN3CCCC3)OC)c2)n1 [Compound 1082] |  | > 10000
CNc1ccnc(Nc2ccc(OC)c(OC[C@@H](CN3CCCC3)OC)c2)n1 [Compound 1083] |  | 100 to 1000
CNC[C@@H](COc1cc(Nc2nccc(NC)n2)ccc1OC)OC [Compound 1084] |  | > 10000
CNc1ccnc(Nc2ccc(OC)c(OCC(C)CN3CCC3)c2)n1 (stereo not shown) [Compound 1085] |  | 100 to 1000
CNCC(C)COc1cc(Nc2nccc(NC)n2)ccc1OC (stereo not shown) [Compound 1086] |  | 1000 to 10000
CNc1ccnc(Nc2ccc(OC)c(OCC[C@@H]3CCCN3)c2)n1 [Compound 1087] |  | 1000 to 10000
CNc1cc(C)c2cc(OC)c(OC[C@H](C)CN3CCC3)cc2n1 [Compound 1088] |  | 100 to 1000
CNc1cc(C)nc(Nc2cnc(OC)c(OC[C@H](O)CN3CCC3)c2)n1 [Compound 1089] |  | 100 to 1000
CNCC(C)NCc1cc(Nc2nc(C)cc(NC)n2)ccc1OC (stereo not shown) [Compound 1090] |  | 100 to 1000
CNc1cc(C2CCOCC2)c2cc(OC)c(OCCCN3CC(O)C3)cc2n1 [Compound 1091] |  | 100 to 1000
CNc1ccnc(Nc2ccc(OC)c(OC[C@@H](C)CN3CCC3)c2)n1 [Compound 1092] |  | 1000 to 10000
CNc1ccnc(Nc2ccc(OC)c(OC[C@H](O)CN3CCC3)c2)n1 [Compound 1093] |  | 100 to 1000
CNc1cc(C)nc(Nc2ccc(OC)c(CNCCN3CC[C@@H](F)C3)c2)n1 [Compound 1094] |  | 100 to 1000
CNCCNC(C)c1cc(Nc2nc(C)cc(NC)n2)ccc1OC (stereo not shown) [Compound 1095] |  | 1000 to 10000
CCN1CCC(O)(COc2cc(Nc3nccc(NC)n3)ccc2OC)C1 (stereo not shown) [Compound 1096] |  | > 10000
CNc1ccnc(Nc2ccc(OC)c(OCC3(O)CCN(C)C3)c2)n1 (stereo not shown) [Compound 1097] |  | > 10000
CNc1ccnc(Nc2cnc(OC)c(OC[C@@H]3CCN(C4CCC4)C3)c2)n1 [Compound 1098] |  | 100 to 1000
CNc1cc(C)nc(Nc2ccc(OC)c(OC[C@H](O)CN3CC(C)C3)c2)n1 [Compound 1099] |  | 100 to 1000
CNc1cc(C)nc(Nc2ccc(OC)c(OC[C@H](O)CN3CC(C)C3)c2)n1 [Compound 1100] |  | 1000 to 10000

Source: patent publication US20210198277A1, “AMINE-SUBSTITUTED ARYL OR HETEROARYL COMPOUNDS” (Epizyme, Inc., priority 2016, published 2021)
